For one data set, the system named is HT29 cells. In words: Total binding and FITC surface exposure of CAIX bispecific adapters on HT29 cells. Format: cell-based. The following applies: 1 μM adapter, 1 hour room temperature; FIG. 3A. As to the method:
(§1) HT29 cells or MDA-CAIX cells were incubated with 1 μM bispecific adapters with different ligands to CAIX and different polyethylene glycol (PEG) linkers in complete RPMI medium (RPMI+10% FBS) for one hour at room temperature. Free compounds were washed away, and fluorescent intensity of fluorescein isothiocyanate (FITC) was analyzed by flow cytometry.
(§2) To analyze the surface exposure of the FITC moiety, the stained cells were incubated with allophycocyanin (APC)-anti-FITC antibody on ice for 30 minutes. Then the cells were washed, and the fluorescent intensity of APC was analyzed by flow cytometer.

The subject of data set [1] is MDA-CAIX cells. In words: Total binding and FITC surface exposure of CAIX bispecific adapters on MDA-CAIX cells. Format: cell-based. The following applies: 1 μM adapter, 1 hour room temperature; FIG. 3C. On the procedure:
as §1, §2

Another data set has as its system HT29 tumor. In words: In vivo efficacy of CAIX targeting bispecific adapters on HT29 tumor model. Set-up: species or system mouse. Particulars: NSG mice, subcutaneous HT29, 10 million anti-FITC CAR-T cells plus adapter; FIG. 7B. As to the method:
(§3) HT29 cells (1.5 million) were implanted into each NOD scid gamma (NSG) mouse by subcutaneous injection. When the tumor volumes reached about 100 mm^3, the treatment groups were injected with 10 million anti-FITC CAR-T cells and bispecific adapters as shown in FIG. 7A. The tumor volume and body weight were monitored regularly. Tumor volume was calculated using the formular: (length*width^2)/2.

The next data set has as its system MDA-CAIX tumor cells. In words: Retention and surface exposure of CAIX bispecific adapters in MDA-CAIX tumor cells from treated mice. Format: in vivo, mouse. The following applies: for CAIX levels of tumor cells (MFI of FITC after staining with 100 nM meta-CAL-PEG6-FITC in vitro): MDA-CAIX tumors from treated mice, FIG. 11C. As to the method: MDA-CAIX tumors from mice in different treatment groups were dissected and digested into single cells 24 hours after the last injections with CAIX bispecific adapters at 500 nmol/kg. The total retention of the bispecific adapters was determined by the FITC fluorescence intensity analyzed by flow cytometry. To estimate the CAIX protein levels in the tumor cells, the cells were stained with 100 nM meta-CAL-PEG6-FITC for 1 hour at room temperature and analyzed by flow cytometry. The FITC exposure of the bispecific adapters on the tumor cell surface was analyzed by flow cytometry after staining with APC-anti-FITC antibody on ice for 30 minutes. Surface exposure of FITC was also analyzed in the cells stained with 100 nM meta-CAL-PEG6-FITC.

The subject of a further data set is MDA-CAIX tumors. In words: In vivo efficacy of CAIX targeting bispecific adapters on MDA-CAIX tumor model. Set-up: species or system mouse. The following applies: NSG mice, subcutaneous MDA-CAIX, 10 million anti-FITC CAR T-cells plus adapter; FIG. 10B. As to the method:
MDA-CAIX cells (5 million) were implanted into each NSG mouse by subcutaneous injection. When the tumor volumes reached about 100 mm^3, the treatment groups were injected with 10 million anti-FITC CAR T-cells and indicated bispecific adapters as shown in FIG. 10A. The tumor volume and body weight were monitored regularly. Tumor volume was calculated using the formular: (length*width^2)/2.

In data set [2] the test system is anti-FITC CAR-T cells co-cultured with HT29 cells. In words: Bispecific adapter mediated anti-FITC CAR-T cell IFNγ release when co-cultured with HT29 cells (ELISA). Format: cell-based. The following applies: HT29 cells at 1:5 ratio, 40 hours. As to the method:
Anti-FITC CAR-T cells were incubated with HT29 cells at 1:5 ratio in the presence of the bispecific adapters at different concentrations for 40 hours. Secretion of IFNγ from anti-FITC CAR-T cells was analyzed by ELISA using the supernatants of the co-cultured medium at the end of the co-culture study.
Anti-FITC CAR T cells were incubated with HT29 cells at 1:5 ratio in the presence of the bispecific adapters at different concentrations for 40 hours. Secretion of IFNγ from anti-FITC CAR T cells was analyzed by ELISA using the supernatants of the co-cultured medium at the end of the co-culture study.
(In general: ELISA stands for enzyme-linked immunosorbent assay.)

The nature of data set [3]: Body weight change of mice in KB tumor model. Format: in vivo, mouse. Particulars: KB tumor-bearing NSG mice; FIG. 16C. On the procedure: KB cells (1 million) were implanted into each NSG mouse by subcutaneous injection. When the tumor volumes reached about 50 mm^3, the treatment groups were injected with 10 million anti-FITC CAR-T cells and indicated bispecific adapters as shown in FIG. 16A. The tumor volume and body weight were monitored regularly. Tumor volume was calculated using the formula: (length*width^2)/2.

Data set [4] relates to MDA-CAIX cells. In words: Bispecific adapter mediated anti-FITC CAR-T cell cytotoxicity to MDA-CAIX cells. The format is cell-based. As to the method: (§4) Anti-FITC CAR-T cells were incubated with an equal number of MDA-CAIX cells in the presence of bispecific adapters at different concentrations. The number of MDA-CAIX cells was determined at the end of the co-culture, and the percentage of cell lysis was calculated using the following formula: [(number of untreated cells−number of treated cells)/number of untreated cells]*100%.
Anti-FITC CAR-T cells were incubated with an equal number of MDA-CAIX cells in the presence of the bispecific adapters at different concentrations. The number of MDA-CAIX cells was determined at the end of the co-culture, and the percentage of cell lysis was calculated using the following formula: [(number of untreated cells−number of treated cells)/number of untreated cells]*100%.
Anti-FITC CAR T cells were incubated with an equal number of MDA-CAIX cells in the presence of the bispecific adapters at different concentrations. The number of MDA-CAIX cells were determined at the end of the co-culture and the percentage of cell lysis was calculated using the following formula: [(number of untreated cells−number of treated cells)/number of untreated cells]*100%.

Data set [5] deals with anti-FITC CAR-T cells co-cultured with MDA-CAIX cells. In words: Bispecific adapter mediated IFNγ release from anti-FITC CAR-T cells co-cultured with MDA-CAIX cells (ELISA). The following applies: adapter concentration between 0.001 nM and 1 nM; MDA-CAIX co-culture; FIGS. 4B, 5B. Format: cell-based. On the procedure: as §4
Secretion of interferon gamma (IFNγ) from anti-FITC CAR-T cells was analyzed by enzyme-linked immunosorbent assay (ELISA) using the supernatants of the co-cultured medium at the end of the co-culture.
Secretion of IFNγ from anti-FITC CAR T cells was analyzed by ELISA using the supernatants of the co-cultured medium at the end of the co-culture.
Secretion of IFNγ from anti-FITC CAR T cells was analyzed by ELISA using the supernatants of the co-cultured medium at the end of the co-culture study.

A short description of data set [6]: Body weight change of mice in HT29 tumor model. Format: in vivo, mouse. Particulars: HT29 tumor-bearing NSG mice treated with anti-FITC CAR-T cells plus adapter; FIG. 7C. On the procedure: as §3
Another data set relates to HT29 tumor cells. In words: Retention and surface exposure of CAIX bispecific adapters in HT29 tumor cells from injected mice. Format: in vivo, mouse. The following applies: 500 nmol/kg, 24 hours after injection, APC-anti-FITC staining; FIG. 8C. On the procedure:
HT29 tumor bearing mice were injected with CAIX bispecific adapters at 500 nmol/kg. After injection (24 hours later), the tumors were dissected and digested into single cells. The total retention of the bispecific adapters was determined by the FITC fluorescence intensity analyzed by flow cytometry. To analyze the FITC exposure of the bispecific adapters on the tumor cell surface, the digested tumor cells were stained with APC-anti-FITC antibody on ice for 30 minutes. After washing away unbound antibody, the fluorescent intensity of APC was analyzed by flow cytometry.

Another data set concerns T cells. In words: T cell counts in the blood and HT29 tumors from mice at end of treatments. The following applies: end of HT29 in vivo study. Set-up: species or system mouse. As to the method:
At the end of the in vivo study on HT29 solid tumor model described in FIGS. 7A-7C, blood was collected from the mice, and the red blood cells in the blood were lysed by using red blood cell lysis buffer (BioLegend, San Diego, CA). The remaining cells were stained with anti-human CD3 antibody on ice for 30 minutes. The number of T cells was analyzed by flow cytometry. To analyze tumor-infiltrated T cells, tumors were dissected and digested to single cells. The digested cells were stained with Zombie Violet cell viability staining dye (BioLegend. San Diego, CA) and anti-human CD3 antibody. The percentage of CD3 T cells in total live cells was analyzed by flow cytometry.

Setting [7] is: low concentrations (between 0.001 nM and 0.1 nM), FIG. 5A.

The structures appear in SMILES notation. “Also recorded” adds a separate entry of the source.

Turning to `NS(=O)(=O)c1nnc(NC(=O)CCCCCCCNC(=S)Nc2ccc(-c3c4ccc(=O)cc-4oc4cc(O)ccc34)c(C(=O)O)c2)s1` [Aza-FITC], the “total binding to HT29 cells (MFI of FITC)” value with HT29 cells is “better total binding to HT29 cells than the other adapters”. Also, the “total binding to MDA-CAIX cells (MFI of FITC)” value in the data set on MDA-CAIX cells [1] is listed as “better total binding to MDA-CAIX cells”. The “growth of HT29 tumor (tumor volume)” value in the data set with HT29 tumor is on record as “slightly inhibited the growth of HT29 tumor”. Further, in the data set on MDA-CAIX tumor cells, the “CAIX levels of tumor cells (MFI of FITC after staining with 100 nM meta-CAL-PEG6-FITC in vitro)” value is “slightly higher CAIX levels than tumors treated with meta-CAL-FITC with PEG3 or PEG6”.

For `NS(=O)(=O)c1c(F)c(F)c(SCCC(=O)NCCOCCOCCOCCOCCOCCOCCNC(=S)Nc2ccc(-c3c4ccc(=O)cc-4oc4cc(O)ccc34)c(C(=O)O)c2)c(F)c1NC1CCCCCCC1` [ortho-CAL-PEG6-FITC], in the data set on MDA-CAIX tumors, the “growth of MDA-CAIX tumors (tumor volume)” value is “significantly inhibited the growth of MDA-CAIX tumors”. Also, in the data set on MDA-CAIX tumor cells (MDA-CAIX tumor cells from treated mice, FIG. 11E), the “staining of anti-FITC antibody (MFI of APC-anti-FITC after staining with 100 nM meta-CAL-PEG6-FITC in vitro)” value was “almost no staining of anti-FITC antibody”. The “CAIX levels of tumor cells (MFI of FITC after staining with 100 nM meta-CAL-PEG6-FITC in vitro)” value in the data set with MDA-CAIX tumor cells was “complete eradication of CAIX^+ tumor cells by CAR T cells”. The “IFNγ released from anti-FITC CAR-T cells” value in [2] (ELISA, FIGS. 14, 15) was “lower levels of IFNγ released from anti-FITC CAR-T cells”. For the same molecule, the body weight change result in data set [3] is listed as “did not induce significant body weight loss; also recorded: didn't induce significant body weight loss”.

For the molecule `NS(=O)(=O)c1c(F)c(F)c(S(=O)(=O)CCC(=O)NCCOCCOCCOCCOCCOCCOCCOCCOCCOCCNC(=S)Nc2ccc(-c3c4ccc(=O)cc-4oc4cc(O)ccc34)c(C(=O)O)c2)c(NC2CCCCCCC2)c1F` [meta-CAL-PEG9-FITC], the “efficacy of anti-FITC CAR-T cell cytotoxicity, lysis (%)” value with MDA-CAIX cells [4] (setting [7]) is “higher efficacy than meta-CAL-PEG3-FITC”. In addition, the “IFNγ release from anti-FITC CAR-T cells” value in [5] is given as “higher levels of IFNγ release from anti-FITC CAR-T cells than meta-CAL-PEG3-FITC”. For the same molecule, in the data set with HT29 tumor, the “growth of HT29 tumor (tumor volume)” value is “significantly inhibited the growth of HT29 tumor”. Moreover, the body weight change entry in [6] was “lost body weight”. In addition, in the data set with HT29 tumor cells, the “surface retention and FITC exposure in HT29 tumors (MFI of APC-anti-FITC)” value was “better FITC exposure than meta-CAL-PEG3-FITC”. For the same molecule, the “T cell counts in blood” value in the data set with T cells (anti-human CD3 staining, FIG. 9A) was “more T cells than the blood from other treatment groups”. For the same molecule, the “tumor-infiltrated T cells (CD3+ T cells/live cells)” value in the data set with T cells (digested tumors, FIG. 9B) is on record as “more tumor-infiltrated T cells”. In [2] (low concentrations (<0.1 nM), FIG. 15), the “IFNγ released from anti-FITC CAR-T cells” value is reported as “highest level of IFNγ released from anti-FITC CAR-T cells”.

In the case of `NS(=O)(=O)c1c(F)c(F)c(S(=O)(=O)CCC(=O)NCCOCCOCCOCCOCCOCCOCCNC(=S)Nc2ccc(-c3c4ccc(=O)cc-4oc4cc(O)ccc34)c(C(=O)O)c2)c(NC2CCCCCCC2)c1F` [meta-CAL-PEG6-FITC], the “efficacy of anti-FITC CAR-T cell cytotoxicity, lysis (%)” value is “higher than ortho-CAL-PEG6-FITC and Aza-FITC” in the data set on MDA-CAIX cells [4] (adapter between 0.001 nM and 10 nM, equal number of CAR-T and MDA-CAIX cells, FIG. 4A); “higher efficacy than meta-CAL-PEG3-FITC” in the data set with MDA-CAIX cells [4] (setting [7]). Further, the “IFNγ release from anti-FITC CAR-T cells” value in data set [5] is “higher level of IFNγ release from anti-FITC CAR-T cells than ortho-CAL-PEG6-FITC and Aza-FITC; also recorded: higher levels of IFNγ release from anti-FITC CAR-T cells than meta-CAL-PEG3-FITC”. Besides, the “surface retention and FITC exposure in HT29 tumors (MFI of APC-anti-FITC)” value with HT29 tumor cells was “better FITC exposure than meta-CAL-PEG3-FITC”. Moreover, the “surface retention and FITC exposure in MDA-CAIX tumors (MFI of APC-anti-FITC)” value in the data set on MDA-CAIX tumor cells (24 hours after last injection at 500 nmol/kg, FIG. 11D) is “slightly better surface retention and FITC exposure than the other compounds”.

For the molecule `NS(=O)(=O)c1c(F)c(F)c(S(=O)(=O)CCC(=O)NCCOCCOCCOCCNC(=S)Nc2ccc(-c3c4ccc(=O)cc-4oc4cc(O)ccc34)c(C(=O)O)c2)c(NC2CCCCCCC2)c1F` [meta-CAL-PEG3-FITC], the “total binding to HT29 cells (MFI of FITC)” value in the data set with HT29 cells is “better total binding to HT29 cells than the other adapters”. For the same molecule, in the data set with HT29 tumor, the “growth of HT29 tumor (tumor volume)” value is listed as “slightly inhibited the growth of HT29 tumor”. Further, the “growth of MDA-CAIX tumors (tumor volume)” value in the data set on MDA-CAIX tumors is recorded as “slightly inhibited the growth of MDA-CAIX tumors”.

The record behind these values is patent US20260263643A1, “BI-SPECIFIC ADAPTERS AND THEIR USE WITH UNIVERSAL CAR-T CELLS IN THE TREATMENT OF CAIX-EXPRESSING TUMORS” (Purdue Research Foundation, priority 2023, published 2026).
